Biological target: Carbonic anhydrase 9 (Homo sapiens, UniProt Q16790)

SMILES | Ki
CC(=O)OC[C@H]1O[C@@H](S(=O)(=O)Cc2cn(-c3ccc(S(N)(=O)=O)cc3)nn2)[C@H](OC(C)=O)[C@@H](OC(C)=O)[C@@H]1OC(C)=O | 9.3 nM
NS(=O)(=O)c1ccc(-n2cc(CS(=O)(=O)[C@@H]3O[C@H](CO)[C@H](O)[C@H](O)[C@H]3O)nn2)cc1 | 8.1 nM
NS(=O)(=O)c1ccc(-n2cc(C[S+]([O-])[C@@H]3O[C@H](CO)[C@H](O)[C@H](O)[C@H]3O)nn2)cc1 (stereo not given in full) | 8 nM
NS(=O)(=O)c1ccc(-n2cc(CS[C@@H]3O[C@H](CO)[C@@H](O)[C@H](O)[C@H]3O)nn2)cc1 | 257 nM
NS(=O)(=O)c1ccc(-n2cc(CS(=O)(=O)[C@@H]3O[C@H](CO)[C@@H](O)[C@H](O)[C@H]3O)nn2)cc1 | 9.5 nM
NS(=O)(=O)c1ccc(-n2cc(CS[C@@H]3O[C@H](CO)[C@H](O)[C@H](O)[C@H]3O)nn2)cc1 | 6.1 nM
NS(=O)(=O)c1ccc(-n2cc(C[S+]([O-])[C@@H]3O[C@H](CO)[C@@H](O)[C@H](O)[C@H]3O)nn2)cc1 (stereo not given in full) | 9.8 nM

Other lines, results leading:

Ki | SMILES
7.5 nM | CC(=O)OC[C@H]1O[C@@H](S(=O)(=O)Cc2cn(-c3ccc(S(N)(=O)=O)cc3)nn2)[C@H](OC(C)=O)[C@@H](OC(C)=O)[C@H]1OC(C)=O
8.6 nM | CC(=O)OC[C@H]1O[C@@H](SCc2cn(-c3ccc(S(N)(=O)=O)cc3)nn2)[C@H](OC(C)=O)[C@@H](OC(C)=O)[C@H]1OC(C)=O
8.6 nM | CC(=O)OC[C@H]1O[C@@H](SCc2cn(-c3ccc(S(N)(=O)=O)cc3)nn2)[C@H](OC(C)=O)[C@@H](OC(C)=O)[C@@H]1OC(C)=O
